Results on three substances are retold here after patent US20030105046A1, “Interleukin converting enzyme (ICE) and central nervous system damage” (The General Hospital Corporation, priority 1997, published 2003).

The subject of test [1] is apoptosis in an cell-free system. Conditions: Nicholson et al., Nature 376 (1995), read-out: Dose causing 50% inhibition of apoptosis; cited from earlier work.
For test [2], the target named is Interleukin-1beta converting enzyme (ICE; caspase-1), wild-type murine, endogenous (mouse) (UniProt P29452). Briefly: cell-based or functional assay.
UniProt P29452, sequence (P29452 whole entry D56N): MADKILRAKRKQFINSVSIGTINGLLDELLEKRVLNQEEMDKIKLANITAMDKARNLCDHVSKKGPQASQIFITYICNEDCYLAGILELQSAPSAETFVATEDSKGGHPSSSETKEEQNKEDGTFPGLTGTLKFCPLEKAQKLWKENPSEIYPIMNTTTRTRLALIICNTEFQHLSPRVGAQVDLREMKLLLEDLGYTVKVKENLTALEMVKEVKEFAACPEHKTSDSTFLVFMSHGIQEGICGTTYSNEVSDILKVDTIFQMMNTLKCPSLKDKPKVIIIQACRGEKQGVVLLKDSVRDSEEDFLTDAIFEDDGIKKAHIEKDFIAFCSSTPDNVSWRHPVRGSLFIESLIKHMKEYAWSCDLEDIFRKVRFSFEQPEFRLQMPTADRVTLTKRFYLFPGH
Test [3] concerns traumatic brain injury in C57BL/6 mice. Briefly: Weight drop traumatic brain injury, lesion volume by TTC staining. It is filed as in vivo, mouse. The procedure:
Brain trauma experiments and lesion quantification were performed essentially as described (Chan, P. H., et al., Ann. NY Acad. Sci. 738:93-103 (1994)). Spontaneously ventilating adult mice were initially anesthetized with halothane in 70% N2O and 30% O2, and fixed in a stereotactic frame. Before trauma, an atraumatic craniectomy was performed by removing the right parietal bone posterior to the coronal, lateral to the sagittal, and anterior to the lambdoid suture. Laterally, the craniectomy was extended to the insertion of the temporalis muscle. […] A 20 g weight was dropped inside a cylinder from a height of 150 mm onto the piston (final speed v=1.70 m/s). Twenty-four hours after trauma, brains were removed and sectioned into five coronal (2 mm) slices and stained with 2% 2,3,5-triphenyl tetrazolium chloride (TTC) as described for a weight drop trauma model (Chan, P. H., et al., Ann. NY Acad. Sci. 738:93-103 (1994)). Surgical procedure as well as quantification of lesion size was performed by an investigator naive to the animal identity. Lesion volume was calculated using an image analysis system (M4, Imaging Research, St. Catherines, Ontario, Canada) from the total lesion volume integrated from the volumes of each single section, after subtracting the volume of the deficient cortex as caused by piston penetration. The volume of the piston penetration was calculated as that of a cylinder (pr^2h=3.14×1.5^2×3 mm^3=21.2 mm^3), where r is the radius of the piston, and h the depth of penetration. The trauma protocol was approved by the IACUC. The NSE-M17Z and wild-type littermate mice were bred from C57BL/6 background, and the wild-type mice used for zVAD-fink injection experiments were C57BL/6 (Taconic Farms, Germantown, N.Y.). NSE-M17Z mice were genotyped as previously described (Friedlander, R. M., et al., J. Exp. Med. 185:933-940 (1997)). zVAD-fmk (480 ng) or vehicle (DMSO 0.4%) was injected i.c.v. (2 μl; bregma −0.9 mm lateral, −0.1 mm posterior, −3.1 mm deep) 1 hour before or 1 hour after trauma.
Data are presented as mean±SEM. Statistical comparisons were made by Student's t-test. For comparison of lesion size two-way ANOVA followed by Tukey posthoc tests was applied. P<0.05 was considered statistically significant. For statistical evaluation by Student's t-test, data on OH production was log transformed.

Turning to Ac-DEVD-CHO, the IC50 in test [1] was 1000 nM.

In test [2], “fused mutant ICE (C284G)-lacZ protein (M17Z), expressed in neurons of NSE-M17Z transgenic mice (from UniProt P29452 1-402)” displayed a mature IL-1β in whole brain lysates after systemic LPS challenge (ELISA specific for mature IL-1β) of 74.7 % less.

With “N-benzyloxycarbonyl-Val-Ala-Asp-fluoromethylketone [zVAD-fink]”, the “Total lesion volume vs. vehicle (significance)” value in test [3] (480 ng i.c.v. 1 hour after trauma, 24 hours following impact) was “not significantly different”. Moreover, the “Size of lesion in the two most anterior sections (2-6 mm) vs. vehicle” value in test [3] (480 ng i.c.v. 1 hour after trauma, P<0.05, n=5) was “significantly reduced”. In test [3] (480 ng i.c.v. 1 hour prior to impact, lesion assessed 24 hours following trauma), the “Reduction of total lesion volume vs. vehicle-injected mice” value was found to be 53%. Moreover, the “Reduction of lesion volume vs. vehicle-injected mice” value in test [3] (480 ng i.c.v. one hour following trauma, lesion assessed 24 hours following trauma) turned out to be 19%.
